Entries after “also recorded” stand apart in the source; their conditions may differ.
Tests used:
human CD3 T cells = assay: Pen 9 western blot of antibiotic-treated human T cells; format: cell-based; conditions: human T cells activated by mitogen in presence of the antibiotic
NOD mice = assay: Autoimmune diabetes in NOD mice; format: in vivo, mouse
Method: NOD mice spontaneously develop diabetes mellitus similar to type I diabetes in humans. […] The mice were followed for the development of diabetes, marked by blood sugar above 300 mg/dl on 2 measurements.

[1] = test system: experimental autoimmune encephalomyelitis (EAE) in rats; assay: Actively induced EAE; format: in vivo, rat; conditions: oral in drinking water from day 7 postinduction, daily dose 50 mg/kg, versus two control groups
[2] = test system: Adjuvant Arthritis (AA) in rats; assay: Adjuvant arthritis (AA); format: in vivo, rat; conditions: IP 5 mg (25 mg/kg) once every 2 or 3 days from day 12, versus non-injected control
Method: Heat-killed Mycobacterium tuberculosis (Mt) strain H37Ra (Difco) was finely ground using a pestle and mortar, and was suspended to a final concentration of 10 mg/ml in IFA. Test rats were injected at the base of the tail with a total of 100 μl of the Mt suspension. The day of AA induction was designated as day 0. Disease severity was assessed by direct observation of all four limbs in each animal. A relative score between 0 and 4 was assigned to each limb based on the degree of joint inflammation, redness, and deformity; thus, the maximum possible score for an individual animal was 16. The results are presented as the mean±SE of total score.
To test the effects of antibiotics in vivo, active experimental autoimmune encephalomyelitis (EAE) was induced in rats as described above, and the injected rats (4 per group) were treated with oral cefuroxime axetil in the drinking water from day 7 postinduction (“Oral T Cefurox.”). One 500 mg tablet was dissolved in 500 ml of drinking water. The daily dose was 50 mg/kg, in the range of therapeutic pediatric human doses. As a control, the intravenous cefuroxime sodium preparation, which is not absorbed into the circulation, was administered orally (“Oral inj. Cefurox.”). A second control group was given water without antibiotics (“Control”). […]

CD4+ human T cells = assay: Real-time PCR verification of six genes; format: cell-based; conditions: same RNA as gene array; cefuroxime 50 μg/ml
Method: To verify the results of the gene array, we synthesized real-time PCR primers (designed with the LightCycler probe design software (Roche)). Real-time PCR of 6 selected genes was performed using a LightCycler (Roche, Basel, Switzerland). RNA was reverse transcribed to cDNA from 1 μg of total RNA, which was then subjected to quantitative RT-PCR performed essentially according to the manufacturer's instructions. Specific primer pairs were used to amplify specific genes in the presence of 3 mM MgCl2. PCR was performed in triplicate in a total volume of 20 μl of LightCycler HotStart DNA SYBR Green I mix (Roche) containing primer and 5 μl of cDNA. […] Denaturation was performed for 15 s at 95° C., annealing was performed in 60° C., and the extension was performed at 72° C. for 20 s, with fluorescence detection at 72° C. after each cycle. After the final cycle, melting point analyses of all samples were performed within the range of 62-95° C. with continuous fluorescence detection. […]
The Human Autoimmune and Inflammatory Response Gene Array (SuperArray Bioscience corporation, Frederick, Md., USA) was used for analysis of gene expression by the T cells. […] To verify the results detected by the gene array study, a panel of six genes was designed and tested by real-time PCR: CCR4, ACVR2, JAK1, STAT4, TLR2 and NFKBIE. […]

| Compound | reactivity of Pen 9 antibody with lysates of treated T cells (human CD3 T cells) | effect on type I diabetes (NOD mice; NOD mice) | incidence of diabetes (NOD mice; NOD mice at 5.7 months, SC weekly, ampicillin 1300 μg, ceftriaxone 675 μg per mouse) | severity of actively induced EAE [1] | arthritis scores [2] | expression of CCR4, ACVR2, JAK1, STAT4, TLR2 and NFKBIE by real-time PCR (CD4+ human T cells) |
| --- | --- | --- | --- | --- | --- | --- |
| CC1(C)S[C@@H]2[C@H](NC(=O)[C@H](N)c3ccccc3)C(=O)N2[C@H]1C(=O)O [ampicillin] | did not bind | Inhibition of type I diabetes in NOD mice | 30% | – | – | – |
| CO/N=C(\C(=O)N[C@@H]1C(=O)N2C(C(=O)O)=C(COC(N)=O)CS[C@H]12)c1ccco1 [cefuroxime] | – | – | – | increases the severity of actively induced EAE | significantly more severe arthritis scores; also recorded: Exacerbation of adjuvant-induced arthritis | suppressed |
